Measurements taken from the NIST ThermoML archive (doi:10.1016/j.tca.2004.08.013).
± gives the expanded uncertainty stated by the source.

Assay: xn = mol fraction of the nth substance listed
Details: 101.3 kPa, Liquid

CCCNCCC [dipropylamine] + ClC(Cl)Cl
Details | mass density, 303.15 K [kg/m3] | mass density, 313.15 K [kg/m3] | viscosity, 303.15 K [mPa·s] | viscosity, 313.15 K [mPa·s]
x1 = 0.0105 | 1457.85 ± 1.3 | 1435.95 ± 1.3 | 0.525 ± 0.008 | 0.473 ± 0.007
x1 = 0.0217 | 1444.32 ± 1.3 | 1422.68 ± 1.2 | 0.531 ± 0.008 | 0.476 ± 0.007
x1 = 0.0311 | 1433.19 ± 1.3 | 1411.78 ± 1.2 | 0.535 ± 0.008 | 0.48 ± 0.007
x1 = 0.0411 | 1421.35 ± 1.2 | 1400.29 ± 1.2 | 0.539 ± 0.008 | 0.483 ± 0.007
x1 = 0.051 | 1409.85 ± 1.2 | 1389.04 ± 1.2 | 0.544 ± 0.008 | 0.486 ± 0.007
x1 = 0.0608 | 1398.52 ± 1.2 | 1378.03 ± 1.1 | 0.548 ± 0.008 | 0.488 ± 0.007
x1 = 0.0708 | 1387.22 ± 1.2 | 1366.94 ± 1.1 | 0.552 ± 0.008 | 0.492 ± 0.007
x1 = 0.0808 | 1376 ± 1.1 | 1356.01 ± 1.1 | 0.558 ± 0.008 | 0.494 ± 0.007
x1 = 0.0914 | 1364.32 ± 1.1 | 1344.6 ± 1.1 | 0.561 ± 0.008 | 0.497 ± 0.007

CCCCNCCCC [dibutylamine] + ClC(Cl)Cl
Details | mass density, 303.15 K [kg/m3] | mass density, 313.15 K [kg/m3] | viscosity, 303.15 K [mPa·s] | viscosity, 313.15 K [mPa·s]
x1 = 0.0103 | 1455.46 ± 1.3 | 1433.69 ± 1.3 | 0.53 ± 0.008 | 0.48 ± 0.007
x1 = 0.0197 | 1441.84 ± 1.3 | 1420.36 ± 1.2 | 0.54 ± 0.008 | 0.489 ± 0.007
x1 = 0.0294 | 1428.11 ± 1.3 | 1406.9 ± 1.2 | 0.552 ± 0.008 | 0.493 ± 0.007
x1 = 0.0381 | 1415.97 ± 1.2 | 1394.99 ± 1.2 | 0.56 ± 0.008 | 0.502 ± 0.008
x1 = 0.0482 | 1401.96 ± 1.2 | 1381.38 ± 1.2 | 0.572 ± 0.008 | 0.51 ± 0.008
x1 = 0.0593 | 1387.11 ± 1.2 | 1366.85 ± 1.1 | 0.584 ± 0.008 | 0.516 ± 0.008
x1 = 0.0684 | 1375.09 ± 1.1 | 1355.19 ± 1.1 | 0.599 ± 0.009 | 0.528 ± 0.008
x1 = 0.0788 | 1361.57 ± 1.1 | 1342.11 ± 1.1 | 0.612 ± 0.009 | 0.535 ± 0.008
x1 = 0.0876 | 1350.35 ± 1.1 | 1331.13 ± 1.1 | 0.624 ± 0.009 | 0.542 ± 0.008

CCN(CC)CC [triethylamine] + O=[N+]([O-])c1ccccc1
303.15 K
Details | mass density [kg/m3] | viscosity [mPa·s]
x1 = 0.0113 | 1186.81 ± 0.81 | 1.59 ± 0.021
x1 = 0.0201 | 1181.7 ± 0.79 | 1.569 ± 0.021
x1 = 0.0288 | 1176.68 ± 0.78 | 1.547 ± 0.02
x1 = 0.0404 | 1169.97 ± 0.77 | 1.521 ± 0.02
x1 = 0.0506 | 1164.25 ± 0.76 | 1.499 ± 0.02
x1 = 0.0601 | 1158.7 ± 0.75 | 1.48 ± 0.02
x1 = 0.0688 | 1153.74 ± 0.74 | 1.466 ± 0.019
x1 = 0.0819 | 1146.33 ± 0.72 | 1.44 ± 0.019
x1 = 0.091 | 1141.21 ± 0.71 | 1.422 ± 0.019
x1 = 0.1005 | 1136.48 ± 0.7 | 1.407 ± 0.019

CCN(CC)CC [triethylamine] + CCCCOC(C)=O
303.15 K
Details | mass density [kg/m3] | viscosity [mPa·s]
x1 = 0.0065 | 870.3 ± 0.61 | 0.641 ± 0.009
x1 = 0.0144 | 869.1 ± 0.61 | 0.638 ± 0.009
x1 = 0.0226 | 867.85 ± 0.61 | 0.631 ± 0.009
x1 = 0.0293 | 866.83 ± 0.61 | 0.628 ± 0.009
x1 = 0.0378 | 865.53 ± 0.61 | 0.623 ± 0.009
x1 = 0.0454 | 864.42 ± 0.61 | 0.618 ± 0.009
x1 = 0.0509 | 863.54 ± 0.61 | 0.613 ± 0.009
x1 = 0.0596 | 862.22 ± 0.61 | 0.607 ± 0.009
x1 = 0.0668 | 861.13 ± 0.61 | 0.603 ± 0.009
x1 = 0.0733 | 860.14 ± 0.61 | 0.599 ± 0.009

CCCN [propan-1-amine] + ClC(Cl)Cl
Details | mass density, 303.15 K [kg/m3] | mass density, 313.15 K [kg/m3] | viscosity, 303.15 K [mPa·s] | viscosity, 313.15 K [mPa·s]
x1 = 0.01 | 1463.1 ± 1.3 | 1441.12 ± 1.3 | 0.523 ± 0.008 | 0.474 ± 0.007
x1 = 0.0207 | 1454.77 ± 1.3 | 1433.07 ± 1.3 | 0.526 ± 0.008 | 0.478 ± 0.007
x1 = 0.0296 | 1447.98 ± 1.3 | 1426.56 ± 1.2 | 0.529 ± 0.008 | 0.481 ± 0.007
x1 = 0.0426 | 1437.89 ± 1.3 | 1416.8 ± 1.2 | 0.533 ± 0.008 | 0.485 ± 0.007
x1 = 0.0491 | 1432.95 ± 1.3 | 1411.95 ± 1.2 | 0.536 ± 0.008 | 0.488 ± 0.007
x1 = 0.0595 | 1424.84 ± 1.2 | 1403.97 ± 1.2 | 0.539 ± 0.008 | 0.491 ± 0.007
x1 = 0.0689 | 1417.67 ± 1.2 | 1396.96 ± 1.2 | 0.542 ± 0.008 | 0.495 ± 0.007
x1 = 0.0796 | 1409.35 ± 1.2 | 1388.75 ± 1.2 | 0.544 ± 0.008 | 0.496 ± 0.007
x1 = 0.096 | 1396.86 ± 1.2 | 1376.41 ± 1.1 | 0.548 ± 0.008 | 0.5 ± 0.007

CCN(CC)CC [triethylamine] + CCOC(C)=O
303.15 K
Details | mass density [kg/m3] | viscosity [mPa·s]
x1 = 0.0127 | 885.47 ± 0.59 | 0.395 ± 0.006
x1 = 0.0205 | 883.69 ± 0.59 | 0.389 ± 0.006
x1 = 0.0323 | 881 ± 0.59 | 0.386 ± 0.006
x1 = 0.0407 | 879.1 ± 0.59 | 0.382 ± 0.006
x1 = 0.0522 | 876.53 ± 0.6 | 0.379 ± 0.006
x1 = 0.0608 | 874.62 ± 0.6 | 0.376 ± 0.006
x1 = 0.0702 | 872.41 ± 0.6 | 0.374 ± 0.006
x1 = 0.0783 | 870.58 ± 0.6 | 0.371 ± 0.006
x1 = 0.09 | 867.91 ± 0.6 | 0.369 ± 0.006
x1 = 0.0996 | 866.05 ± 0.6 | 0.367 ± 0.006

CCCN(CCC)CCC [tripropylamine] + ClC(Cl)Cl
Details | mass density, 303.15 K [kg/m3] | mass density, 313.15 K [kg/m3] | viscosity, 303.15 K [mPa·s] | viscosity, 313.15 K [mPa·s]
x1 = 0.0106 | 1453.58 ± 1.3 | 1431.77 ± 1.3 | 0.531 ± 0.008 | 0.476 ± 0.007
x1 = 0.0206 | 1437.45 ± 1.3 | 1416.02 ± 1.2 | 0.541 ± 0.008 | 0.48 ± 0.007
x1 = 0.032 | 1419.7 ± 1.2 | 1398.73 ± 1.2 | 0.546 ± 0.008 | 0.485 ± 0.007
x1 = 0.0396 | 1407.99 ± 1.2 | 1387.54 ± 1.2 | 0.554 ± 0.008 | 0.489 ± 0.007
x1 = 0.0509 | 1391.16 ± 1.2 | 1370.93 ± 1.1 | 0.563 ± 0.008 | 0.493 ± 0.007
x1 = 0.0596 | 1378.63 ± 1.1 | 1358.79 ± 1.1 | 0.568 ± 0.008 | 0.501 ± 0.008
x1 = 0.0693 | 1364.78 ± 1.1 | 1345.21 ± 1.1 | 0.579 ± 0.008 | 0.504 ± 0.008
x1 = 0.0787 | 1351.78 ± 1.1 | 1332.44 ± 1.1 | 0.59 ± 0.009 | 0.511 ± 0.008
x1 = 0.0883 | 1338.63 ± 1.1 | 1319.39 ± 1 | 0.598 ± 0.009 | 0.516 ± 0.008
